Measurements: patent publication US8192962B2, “Processes for detecting toxic substances” (Daikin Industries, Ltd., priority 2001, dated 2012)

Tested on: Genes belonging to other category
Experiment: DNA chip mRNA expression in yeast, genes belonging to other category (Table 9)
Format: cell-based, Saccharomyces cerevisiae S288C
Method: Yeast (Saccharomyces cerevisiae S288C (α SUC2mal mel gap2 CUP1)) were incubated at 25° C. on YPD medium (yeast extract 1%, polypepton 2%, glucose 2%). One of toxic chemical substances was added to the cells at logarithmic growth phase, and the cells were further incubated for two hours. Cells were cultured without any chemical substance in the same condition, and were used as control. Concentrations of the chemical substances were defined to inhibit the growth of the yeast but not lead to death.
After completion of the incubation, the culture was centrifuged to collect the cells. To the cells, sodium acetate buffer (50 mM sodium acetate, 10 mM EDTA, 1% SDS) was added, and the mixture was shaken at 65° C. for five minutes, followed by returning to room temperature, and obtaining the supernatant, of which the procedures were repeated two times. To the supernatant, ½ amount of a solution of phenol/chloroform was added, and the mixture was centrifuged to give a supernatant, which was added with an equal amount of chloroform, and the mixture was centrifuged to give a supernatant. To the supernatant, an equal amount of isopropanol containing 0.3 M sodium acetate was added, and the mixture was allowed to stand at room temperature for 30 minutes, after which the mixture was centrifuged to give a sediment of the whole RNAs. Seventy % ethanol was added to the sediment, and the mixture was again centrifuged to give a sediment, which was then dried and dissolved in water. mRNA was isolated from the whole RNAs as followings. In view of the fact that a poly A chain is attached to the 3′ terminus of mRNA, a polynucleotide having a poly T structure which was immobilized on the surface of latex beads was used to trap the mRNA, and then the mRNA was washed and eluted with spine column (Oligotex-dT30<Super>mRNA Purification Kit, Takara). Reverse transcription of the mRNA was conducted with a reverse transcriptase (Super Script II Reverse Transcriptase; catalogue No. 18064-014, GibcoBRL) using fluorescence-labeled nucleotides to give cDNAs that were introduced with Cy3-dUTP or Cy5-dUTP during the reverse transcription.
The labeled cDNAs were dissolved in TE buffer (10mM Tris-HCl/1 mM EDTA, pH8.0), and the solution was dropped on the DNA chip containing the whole genes of yeast (DNA Chip Research Inc. Japan) so that the cDNAs were hybridized on the DNA chip at 65° C. for over 12 hours. The fluoresces intensity of the DNA chip was read with a scanner, and the ratio relative to the fluorescence intensity resulting from the absence of chemical substance was estimated as the following, which is shown in Tables 1 to 9: […]

## [Cl][Pb][Cl] [(4), PbCl2]
Yeast gene YKL013C
  The level of expressed mRNA in the presence of chemical substance/The level of expressed mRNA in the absence of chemical substance: 1.1
Yeast gene YKL039W
  The level of expressed mRNA in the presence of chemical substance/The level of expressed mRNA in the absence of chemical substance: 0.8
Yeast gene YKL041W
  The level of expressed mRNA in the presence of chemical substance/The level of expressed mRNA in the absence of chemical substance: 1.0
Yeast gene YKL096W
  The level of expressed mRNA in the presence of chemical substance/The level of expressed mRNA in the absence of chemical substance: 1.6
Yeast gene YKL165C
  The level of expressed mRNA in the presence of chemical substance/The level of expressed mRNA in the absence of chemical substance: 0.6
Yeast gene YKL193C
  The level of expressed mRNA in the presence of chemical substance/The level of expressed mRNA in the absence of chemical substance: 1.4
Yeast gene YLR120C
  The level of expressed mRNA in the presence of chemical substance/The level of expressed mRNA in the absence of chemical substance: 1.6
Yeast gene YLR136C
  The level of expressed mRNA in the presence of chemical substance/The level of expressed mRNA in the absence of chemical substance: 3.3
Yeast gene YLR178C
  The level of expressed mRNA in the presence of chemical substance/The level of expressed mRNA in the absence of chemical substance: 4.6
Yeast gene YLR250W
  The level of expressed mRNA in the presence of chemical substance/The level of expressed mRNA in the absence of chemical substance: 1.4
Yeast gene YLR327C
  The level of expressed mRNA in the presence of chemical substance/The level of expressed mRNA in the absence of chemical substance: 8.2
Yeast gene YLR356W
  The level of expressed mRNA in the presence of chemical substance/The level of expressed mRNA in the absence of chemical substance: 1.2
Yeast gene YLR362W
  The level of expressed mRNA in the presence of chemical substance/The level of expressed mRNA in the absence of chemical substance: 3.0
Yeast gene YLR391W
  The level of expressed mRNA in the presence of chemical substance/The level of expressed mRNA in the absence of chemical substance: 0.8
Yeast gene YLR429W
  The level of expressed mRNA in the presence of chemical substance/The level of expressed mRNA in the absence of chemical substance: 0.9
Yeast gene YMR004W
  The level of expressed mRNA in the presence of chemical substance/The level of expressed mRNA in the absence of chemical substance: 1.3
Yeast gene YMR094W
  The level of expressed mRNA in the presence of chemical substance/The level of expressed mRNA in the absence of chemical substance: 1.7
Yeast gene YMR104C
  The level of expressed mRNA in the presence of chemical substance/The level of expressed mRNA in the absence of chemical substance: 2.6
Yeast gene YMR219W
  The level of expressed mRNA in the presence of chemical substance/The level of expressed mRNA in the absence of chemical substance: 0.7
Yeast gene YMR226C
  The level of expressed mRNA in the presence of chemical substance/The level of expressed mRNA in the absence of chemical substance: 1.6
Yeast gene YMR275C
  The level of expressed mRNA in the presence of chemical substance/The level of expressed mRNA in the absence of chemical substance: 0.6
Yeast gene YMR276W
  The level of expressed mRNA in the presence of chemical substance/The level of expressed mRNA in the absence of chemical substance: 0.7
Yeast gene YMR314W
  The level of expressed mRNA in the presence of chemical substance/The level of expressed mRNA in the absence of chemical substance: 1.3
Yeast gene YNL006W
  The level of expressed mRNA in the presence of chemical substance/The level of expressed mRNA in the absence of chemical substance: 1.5
Yeast gene YNL007C
  The level of expressed mRNA in the presence of chemical substance/The level of expressed mRNA in the absence of chemical substance: 0.8
Yeast gene YNL093W
  The level of expressed mRNA in the presence of chemical substance/The level of expressed mRNA in the absence of chemical substance: 4.5
Yeast gene YNL333W
  The level of expressed mRNA in the presence of chemical substance/The level of expressed mRNA in the absence of chemical substance: 2.3
Yeast gene YNR010W
  The level of expressed mRNA in the presence of chemical substance/The level of expressed mRNA in the absence of chemical substance: 2.8
Yeast gene YNR069C
  The level of expressed mRNA in the presence of chemical substance/The level of expressed mRNA in the absence of chemical substance: 0.4
Yeast gene YOL013C
  The level of expressed mRNA in the presence of chemical substance/The level of expressed mRNA in the absence of chemical substance: 1.5
Yeast gene YOL164W
  The level of expressed mRNA in the presence of chemical substance/The level of expressed mRNA in the absence of chemical substance: 1.5
Yeast gene YOR036W
  The level of expressed mRNA in the presence of chemical substance/The level of expressed mRNA in the absence of chemical substance: 1.6
Yeast gene YOR117W
  The level of expressed mRNA in the presence of chemical substance/The level of expressed mRNA in the absence of chemical substance: 0.8
Yeast gene YOR124C
  The level of expressed mRNA in the presence of chemical substance/The level of expressed mRNA in the absence of chemical substance: 0.8
Yeast gene YOR132W
  The level of expressed mRNA in the presence of chemical substance/The level of expressed mRNA in the absence of chemical substance: 2.8
Yeast gene YOR157C
  The level of expressed mRNA in the presence of chemical substance/The level of expressed mRNA in the absence of chemical substance: 1.3
Yeast gene YOR181W
  The level of expressed mRNA in the presence of chemical substance/The level of expressed mRNA in the absence of chemical substance: 1.4
Yeast gene YOR185C
  The level of expressed mRNA in the presence of chemical substance/The level of expressed mRNA in the absence of chemical substance: 1.1
Yeast gene YOR198C
  The level of expressed mRNA in the presence of chemical substance/The level of expressed mRNA in the absence of chemical substance: 1.0
Yeast gene YOR259C
  The level of expressed mRNA in the presence of chemical substance/The level of expressed mRNA in the absence of chemical substance: 0.9
Yeast gene YOR261C
  The level of expressed mRNA in the presence of chemical substance/The level of expressed mRNA in the absence of chemical substance: 0.9
Yeast gene YOR288C
  The level of expressed mRNA in the presence of chemical substance/The level of expressed mRNA in the absence of chemical substance: 1.1
Yeast gene YOR355W
  The level of expressed mRNA in the presence of chemical substance/The level of expressed mRNA in the absence of chemical substance: 0.8
Yeast gene YOR383C
  The level of expressed mRNA in the presence of chemical substance/The level of expressed mRNA in the absence of chemical substance: 0.9
Yeast gene YPL089C
  The level of expressed mRNA in the presence of chemical substance/The level of expressed mRNA in the absence of chemical substance: 1.8
Yeast gene YPL109C
  The level of expressed mRNA in the presence of chemical substance/The level of expressed mRNA in the absence of chemical substance: 1.2
Yeast gene YPL149W
  The level of expressed mRNA in the presence of chemical substance/The level of expressed mRNA in the absence of chemical substance: 2.8
Yeast gene YPL154C
  The level of expressed mRNA in the presence of chemical substance/The level of expressed mRNA in the absence of chemical substance: 1.2
Yeast gene YPR103W
  The level of expressed mRNA in the presence of chemical substance/The level of expressed mRNA in the absence of chemical substance: 0.7
Yeast gene YPR108W
  The level of expressed mRNA in the presence of chemical substance/The level of expressed mRNA in the absence of chemical substance: 0.6
